# Reference: patent US20100311718A1, “Treatment of Psychoses with Dibenzothiazepine Antipsychotic” (AstraZeneca AB, priority 2004, published 2010)
# Structures can show the parent of a compound that is named as a salt. Where two headings read alike, the source gives them in different places. Marks after values point to notes of the source that are not given here.
# Legend:
# [1] = system: patients with bipolar depression; conditions: both doses, p<0.001
# [2] = system: patients with bipolar depression; conditions: for Improvement in mean HAM-A score: endpoint (Week 8), P<0.05 vs placebo
# Text: (§1) The treatment was with quetiapine or placebo. There were 43% male and 57% female patients. The demographics also included 67% bipolar I and 33% bipolar II.
# [3] = system: patients with bipolar depression
# Text: as §1
# [4] = system: patients with bipolar depression; remark: listed apart in the source
# Text: Criteria for Emergent Mania (any one of the following): AE (Adverse Event) or SAE
# (Serious Adverse Event) of Mania. Withdrawal for AE of mania. YMRS (Young Mania Rating Scale) ≧16 on 2 consecutive or final assessment.
# [5] = system: patients with bipolar depression; remark: listed apart in the source
# Text: as §1
# [6] = system: patients with bipolar depression; remark: listed apart in the source
# Text: as §1
# [7] = system: patients with bipolar depression; conditions: for Change in MADRS, Mean (SD): Bipolar I
# Text: as §1
# [8] = system: patients with bipolar depression; remark: listed apart in the source
# Text: as §1
# [9] = system: patients with bipolar depression; conditions: 8 week trial; difference not statistically significant; cited from earlier work
# [10] = system: patients with bipolar depression; conditions: monotherapeutic agent; cited from earlier work
# [11] = system: patients with bipolar depression; conditions: 7-week trial, patients who completed the study; cited from earlier work
# [12] = treatment of bipolar depression
# [13] = OC (completer) population, 300 mg/day
# [14] = OC (completer) population, 600 mg/day
compound,measurement,setting,value
"OCCOCCN1CCN(C2=Nc3ccccc3Sc3ccccc32)CC1 [quetiapine, 2-[2-(4-dibenzo [b,f] 1,4]thiazepin-11-yl-1-piperazinyl)ethoxy]-ethanol fumarate]",Clinical Improvement (CGI),[1],Clinical Improvement (CGI) in both doses from Day 8 on
same,Improvement in mean HAM-A score,[2]; about 300 mg/day,−8.6
same,Improvement in mean HAM-A score,[2]; about 600 mg/day,−8.7
same,Efficacy in anxiety symptoms (HAM-A),"[2]; both doses, p<0.01",Efficacy in anxiety symptoms (HAM-A) in both doses from Day 8 on
same,"PSQI change (Δ), Mean (SD)","[3]; Week 4, 300 mg",−4.7 (4.2)*
same,"PSQI change (Δ), Mean (SD)","[3]; Week 4, 600 mg",−5.3 (4.9)*
same,"PSQI change (Δ), Mean (SD)","[3]; Week 8, 300 mg",−5.3 (4.3)*
same,"PSQI change (Δ), Mean (SD)","[3]; Week 8, 600 mg",−6.4 (4.3)*
same,"PSQI change (Δ), Mean (SD)","[3]; Week 8 LOCF, 300 mg",−5.1 (4.3)*
same,"Sleep component: Sleep disturbance, Mean (SD)","[3]; Week 8 LOCF, 300 mg",1.1 (0.6)
same,"Sleep component: Sleep duration, Mean (SD)","[3]; Week 8 LOCF, 300 mg",0.7 (0.8)
same,"Sleep component: Sleep dysfunction, Mean (SD)","[3]; Week 8 LOCF, 300 mg",1.3 (0.9)
same,"Sleep component: Sleep latency, Mean (SD)","[3]; Week 8 LOCF, 300 mg",1.3 (1.0)
same,"Sleep component: Sleep medication, Mean (SD)","[3]; Week 8 LOCF, 300 mg",0.4 (0.9)
same,"Sleep component: Sleep quality, Mean (SD)","[3]; Week 8 LOCF, 300 mg",1.0 (0.8)
same,"PSQI change (Δ), Mean (SD)","[3]; Week 8 LOCF, 600 mg",−5.5 (4.8)*
same,"Sleep component: Sleep disturbance, Mean (SD)","[3]; Week 8 LOCF, 600 mg",1.2 (0.7)
same,"Sleep component: Sleep duration, Mean (SD)","[3]; Week 8 LOCF, 600 mg",0.5 (0.8)
same,"Sleep component: Sleep dysfunction, Mean (SD)","[3]; Week 8 LOCF, 600 mg",1.4 (0.9)
same,"Sleep component: Sleep latency, Mean (SD)","[3]; Week 8 LOCF, 600 mg",1.3 (1.1)
same,"Sleep component: Sleep medication, Mean (SD)","[3]; Week 8 LOCF, 600 mg",0.4 (0.9)
same,"Sleep component: Sleep quality, Mean (SD)","[3]; Week 8 LOCF, 600 mg",0.8 (0.8)
same,"Treatment-emergent mania, number of patients",[4]; 300 mg,6
same,"Treatment-emergent mania, percent of patients",[4]; 300 mg,3.5%
same,"Treatment-emergent mania, number of patients",[4]; 600 mg,4
same,"Treatment-emergent mania, percent of patients",[4]; 600 mg,2.4%
same,Association with treatment-emergent mania (switching),[4]; [12],not associated with treatment-emergent mania
same,"Q-LES-Q change (Δ), Mean (SD)","[5]; Week 4, 300 mg",8.6 (9.6)^a
same,"Q-LES-Q change (Δ), Mean (SD)","[5]; Week 4, 600 mg",11.0 (10.7)*
same,"Q-LES-Q change (Δ), Mean (SD)","[5]; Week 8, 300 mg",11.7 (10.4)^a
same,"Q-LES-Q change (Δ), Mean (SD)","[5]; Week 8, 600 mg",16.3 (10.3)*
same,"Q-LES-Q change (Δ), Mean (SD)","[5]; Week 8 LOCF, 600 mg",12.2 (11.6)*
same,Adverse event trends,[6]; in vivo,No unexpected AE trends
same,Changes in weight,[6]; in vivo,Small dose related changes in weight
same,Tolerability,[6]; [12],"well-tolerated in the treatment of bipolar depression with a low incidence of EPS (extrapyramidal symptoms), prolactin, sexual dysfunction and weight gain"
same,MADRS effect size,[7]; Bipolar I & II,0.6
same,"Change in MADRS, Mean (SD)","[7]; ITT population, 300 mg/day",−17.1 (9.7)
same,"Change in MADRS, Mean (SD)","[7]; ITT population, 600 mg/day",−18.2 (11.0)
same,MADRS Change,"[7]; ITT population, 300 mg/day",−16.5
same,MADRS Change,"[7]; ITT population, 600 mg/day",−16.8
same,MADRS Change,[7]; [13],−18.6
same,MADRS Change,[7]; [14],−20.3
same,Efficacy against depressive symptoms (MADRS and HAM-D),"[7]; both doses, p<0.001",Efficacy against depressive symptoms in both doses from Day 8 on
same,"Advantage over placebo, MADRS Responder analysis",[7]; in vivo,20%
same,"Advantage over placebo, remission analysis",[7]; in vivo,20%
same,HAM-D Change,"[8]; ITT population, 300 mg/day",−13.4
same,HAM-D Change,"[8]; ITT population, 600 mg/day",−13.9
same,HAM-D Change,[8]; [13],−15.0
same,HAM-D Change,[8]; [14],−17.0
CCCC(CCC)C(=O)O [divalproex],Percentage of patients with a 50% reduction in HAM-D scores without mania,[9],numerical improvement over placebo
O=C([O-])[O-].[Li+].[Li+] [Lithium carbonate],Patients with bipolar depression in whom monotherapy is effective,[10],approximately 50%
Nc1nnc(-c2cccc(Cl)c2Cl)c(N)n1 [lamotrigine],HAM-D and MADRS scores,[11],produced improvement in HAM-D and MADRS scores
